Tested on: recombinant human CRF receptors
Test: CRF receptors-binding assay by scintillation proximity (SPA), displacement of 125I-oCRF (CRF1) / 125I-Sauvagine (CRF2)
Details: qualitative statement; assay not specified
Description: The CRF receptors-binding assay was performed by using the homogeneous technique of scintillation proximity (SPA). The ligand binds to recombinant membrane preparation expressing the CRF receptors which in turn bind to wheat germ agglutinin coated SPA beads. In the Experimental Part will be disclosed the details of the experiments.
CRF binding affinity has been determined in vitro by the compounds' ability to displace ^125I-oCRF and ^125I-Sauvagine for CRF1 and CRF2 SPA, respectively, from recombinant human CRF receptors expressed in Chinese Hamster Ovary (CHO) cell membranes. For membrane preparation, CHO cells from confluent T-flasks were collected in SPA buffer (HEPES/KOH 50 mM, EDTA 2 mM; MgCl2 10 mM, pH 7.4.) in 50 mL centrifuge tubes, homogenized with a Polytron and centrifuged (50,000 g for 5 min at 4° C.: Beckman centrifuge with JA20 rotor). The pellet was resuspended, homogenized and centrifuged as before.
The SPA experiment has been carried out in Optiplate by the addition of 100 μL the reagent mixture to 1 μL of compound dilution (100% DMSO solution) per well. […]
The plate was incubated overnight (>18 hrs) at room temperature and read with the Packard Topcount with a WGA-SPA ^125I counting protocol.

CCC(COC)Oc1nc(C)nc2c1CCN2c1ccc(C(F)(F)F)cc1C(F)(F)F (stereo not shown) [Compound 1-12, 7-(2,4-bis-trifluoromethyl-phenyl)-4-(1-methoxymethyl-propoxy)-2-methyl-6,7-dihydro-5H-pyrrolo[2,3-d]pyrimidine]
activity: good activity

From US7462622B2, “Pyrrolo[2, 3-d] pyrimidine derivatives as corticotropin releasing factor antagonists” (Glaxo Group Limited, priority 2001, dated 2008)
